Data from PubChem BioAssay AID288 (DTP/NCI, 2004).
Where “and” joins values, the source holds several entries; their conditions need not be identical. Equal entries are not always repeated. Results filed as inconclusive are left out. Numbered stars: 1 amine (or outer) side, 2 acyl side, 3 side chain; on linkers, the order of the positions; unused ones are H or OH. Bridge positions count the residues as written; N and C are the ends. Square brackets hold non-standard residues; d marks the D form. Peptide text beside a SMILES is read from it. I, II: the chains in the order shown. * marks the point of attachment. ξ: configuration not given here. Quinaldoyl(3-OH,6-OMe) = COc1ccc2nc(C(=O)*)c(O)cc2c1; X2 = CC(=O)OC1CC=NN([*:1])C1C(=O)[*:2]; ξNMeVal(3-OH) = CNC(C(=O)O)C(C)(C)O; X3 = O=C(C1CCCNN1[*:1])[*:2]; Sar = CNCC(=O)O

Tested on: BDF1 mice, M5076 sarcoma s.c., survival/tumor T/C
Assay: NCI In Vivo Anticancer Drug Screen. Data for tumor model Sarcoma M5076 (subcutaneous) in B6D2F1 (BDF1) mice
Protocol: The antitumor activity of compounds was measured in mice bearing transplantable tumors. Survival or tumor size were measured and the results are expressed as the measurement made in the treated group (T) divided by the measurement made in the vehicle treated control group (C). The tumor model used in this assay is Sarcoma M5076 (subcutaneous) in B6D2F1 (BDF1) mice

In the case of `O=C1c2ccccc2C(=O)c2c(NCCNCCO)ccc(NCCNCCO)c21`, the T/C (endpoint: median survival time, dose: 7.78 mg/kg/injection, schedule: Q04DX004 (ip), vehicle: saline, higher = longer survival) was 100 % of control, the T/C (endpoint: median survival time, dose: 7.78 mg/kg/injection, schedule: Q04DX004 (iv), vehicle: saline, higher = longer survival) was 102 % of control and the T/C (endpoint: median survival time, dose: 13.0 mg/kg/injection, schedule: Q04DX004 (ip), vehicle: saline, higher = longer survival) was 96 % of control. The T/C (endpoint: median survival time, dose: 13.0 mg/kg/injection, schedule: Q04DX004 (iv), vehicle: saline, higher = longer survival) was 88 % of control, the T/C (endpoint: median survival time, dose: 21.6 mg/kg/injection, schedule: Q04DX004 (ip), vehicle: saline, higher = longer survival) was 90 % of control and the T/C (endpoint: median survival time, dose: 21.6 mg/kg/injection, schedule: Q04DX004 (iv), vehicle: saline, higher = longer survival) was 100 % of control. For the same compound, the T/C (endpoint: median survival time, dose: 36.0 mg/kg/injection, schedule: Q04DX004 (ip), vehicle: saline, higher = longer survival) was 103 % of control.
For `COc1ccc2nc(C(=O)NC3COC(=O)C(C(C)(C)O)N(C)C(=O)CN(C)C(=O)CNC(=O)C4CCCNN4C(=O)C(NC(=O)c4nc5ccc(OC)cc5cc4O)COC(=O)C(C(C)(C)O)N(C)C(=O)CN(C)C(=O)CNC(=O)C4C(OC(C)=O)CC=NN4C3=O)c(O)cc2c1` (centres undefined) (I: {Quinaldoyl(3-OH,6-OMe)}-S[X2]G[Sar][ξNMeVal(3-OH)] / II: {Quinaldoyl(3-OH,6-OMe)}-S[X3]G[Sar][ξNMeVal(3-OH)]; ester I:1-II:C, I:C-II:1; configuration not given here), the T/C (endpoint: median survival time, dose: 5.0 micrograms/kg/injection, schedule: Q01DX009 (ip), vehicle: Klucel (hydroxypropylcellulose) (HPC), higher = longer survival) was 97 % of control, the T/C (endpoint: median survival time, dose: 10.0 micrograms/kg/injection, schedule: Q01DX009 (ip), vehicle: Klucel (hydroxypropylcellulose) (HPC), higher = longer survival) was 86 % of control and the T/C (endpoint: median survival time, dose: 20.0 micrograms/kg/injection, schedule: Q01DX009 (ip), vehicle: Klucel (hydroxypropylcellulose) (HPC), higher = longer survival) was 95 % of control. The T/C (endpoint: median survival time, dose: 40.0 micrograms/kg/injection, schedule: Q01DX009 (ip), vehicle: Klucel (hydroxypropylcellulose) (HPC), higher = longer survival) was 94 % of control, the T/C (endpoint: median tumor weight (est.), dose: 5.0 micrograms/kg/injection, schedule: Q01DX009 (ip), vehicle: DMSO, higher = larger tumour) was 90 % of control and the T/C (endpoint: median tumor weight (est.), dose: 10.0 micrograms/kg/injection, schedule: Q01DX009 (ip), vehicle: DMSO, higher = larger tumour) was 107 % of control. For the same compound, the T/C (endpoint: median tumor weight (est.), dose: 20.0 micrograms/kg/injection, schedule: Q01DX009 (ip), vehicle: DMSO, higher = larger tumour) was 117 % of control.
`COc1ccc(Cl)[n+]([O-])n1` was tested, and the T/C (endpoint: median survival time, dose: 50.0 mg/kg/injection, schedule: Q04DX003 (ip), vehicle: Klucel (hydroxypropylcellulose) (HPC), higher = longer survival) was 100 % of control and the T/C (endpoint: median survival time, dose: 100.0 mg/kg/injection, schedule: Q04DX003 (ip), vehicle: Klucel (hydroxypropylcellulose) (HPC), higher = longer survival) was 100 % of control.
For `O=C1CC(Cl)(CS(F)(F)(F)(F)F)O1` (centres undefined), the T/C (endpoint: median survival time, dose: 50.0 mg/kg/injection, schedule: Q01DX009 (ip), vehicle: saline with Tween-80, higher = longer survival) was 100 % of control and the T/C (endpoint: median tumor weight (est.), dose: 50.0 mg/kg/injection, schedule: Q01DX009 (ip), vehicle: saline with Tween-80, higher = larger tumour) was 56 % of control.
With `CO[C@@]12[C@H](COC(N)=O)C3=C(C(=O)C(C)=C(N)C3=O)N1C[C@@H]1N[C@@H]12` the T/C (endpoint: median survival time, dose: 0.38 mg/kg/injection, schedule: Q04DX006 (ip), vehicle: saline, higher = longer survival) was 105 % of control, the T/C (endpoint: median survival time, dose: 0.75 mg/kg/injection, schedule: Q02DX033 (ip), vehicle: saline, higher = longer survival) was 154 % of control and the T/C (endpoint: median survival time, dose: 0.75 mg/kg/injection, schedule: Q04DX006 (ip), vehicle: saline, higher = longer survival) was 103 % of control. The T/C (endpoint: median survival time, dose: 1.5 mg/kg/injection, schedule: Q02DX033 (ip), vehicle: saline, higher = longer survival) was 92 % of control and the T/C (endpoint: median survival time, dose: 3.0 mg/kg/injection, schedule: Q04DX006 (ip), vehicle: saline, higher = longer survival) was 101 % of control.
For `Nc1nc(=S)c2[nH]cnc2[nH]1`, the T/C (endpoint: mean tumor weight, dose: 0.5 mg/kg/injection, schedule: Q02DX011 (ip), vehicle: Klucel (hydroxypropylcellulose) (HPC), higher = larger tumour) was 58 % of control, the T/C (endpoint: mean tumor weight, dose: 1.0 mg/kg/injection, schedule: Q02DX011 (ip), vehicle: Klucel (hydroxypropylcellulose) (HPC), higher = larger tumour) was 16 % of control and the T/C (endpoint: mean tumor weight, dose: 2.0 mg/kg/injection, schedule: Q02DX011 (ip), vehicle: Klucel (hydroxypropylcellulose) (HPC), higher = larger tumour) was 3 % of control.
For `COCC(O)Cn1ccnc1[N+](=O)[O-]` (centres undefined), the T/C (endpoint: median survival time, dose: 600.0 mg/kg/injection, schedule: Q04DX003 (ip), vehicle: saline, higher = longer survival) was 105 % of control and 106 % of control, the T/C (endpoint: median survival time, dose: 668.0 mg/kg/injection, schedule: Q07DX002 (ip), vehicle: saline, higher = longer survival) was 97 % of control and the T/C (endpoint: median survival time, dose: 1000.0 mg/kg/injection, schedule: Q04DX003 (ip), vehicle: saline, higher = longer survival) was 102 % of control. For the same compound, the T/C (endpoint: median survival time, dose: 1000.0 mg/kg/injection, schedule: Q07DX002 (ip), vehicle: saline, higher = longer survival) was 119 % of control.
For `C1CCC2OCCOCCOCCOCCOC2C1` (centres undefined), the T/C (endpoint: median survival time, dose: 50.0 mg/kg/injection, schedule: Q01DX009 (ip), vehicle: saline, higher = longer survival) was 111 % of control, the T/C (endpoint: median survival time, dose: 100.0 mg/kg/injection, schedule: Q01DX009 (ip), vehicle: saline, higher = longer survival) was 113 % of control and the T/C (endpoint: median tumor weight (est.), dose: 50.0 mg/kg/injection, schedule: Q01DX009 (ip), vehicle: saline, higher = larger tumour) was 66 % of control. The T/C (endpoint: median tumor weight (est.), dose: 100.0 mg/kg/injection, schedule: Q01DX009 (ip), vehicle: saline, higher = larger tumour) was 75 % of control.
